Laboratory results as given in article PMC3821218 (Structure (London, England : 1993), 2013).
Marks after values point to notes of the source that are not given here.

How the values were obtained:
RR468 [1] = target: T1, RR468 (Thermotoga maritima, UniProt Q9WYT9, V13P/L14I/I17M/N21V); conditions: free RR468*; phosphomimetic; NaF/BeSO4/MgCl2, pH 4.6
RR468 [2] = target: T1, RR468; test: autophosphorylation from […]acetyl phosphate; format: biochemical; conditions: labelled compound; 5 mM MgCl2, pH 8.0, room temperature, 1 hour
crystal structure = target: the molecule itself; test: crystal structure

[F][Be-]([F])[F] [BeF3^−]
X-ray crystal structure, 1.80 Å (RR468 [1]): the free forms of HK853* (HKf*) bound to ADP and RR468* (RRf*) bound to BeF3^−

CC(=O)OP(=O)(O)O [acetyl-phosphate]
autophosphorylation from [32P]acetyl phosphate (RR468 [2]): RR468* autophosphorylates more poorly than RR468 using this method

B1: HK853, wild type, cytoplasmic portion (enzyme, Thermotoga maritima)
chain: VENVTESKELERLKRIDRMKTEFIANISHELRTPLTAIKAYAETIYNSLGELDLSTLKEFLEVIIDQSNHLENLLNELLDFSRLERKSLQINREKVDLCDLVESAVNAIKEFASSHNVNVLFESNVPCPVEAYIDPTRIRQVLLNLLNNGVKYSKKDAPDKYVKVILDEKDGGVLIIVEDNGIGIPDHAKDRIFEQFYRVDSSLTYEVPGTGLGLAITKEIVELHGGRIWVESEVGKGSRFFVWIPKDRAGEDNRQDN
stoichiometry N (crystal structure): 2
